Tests used:
[1] = target: human D3 dopamine receptor (Homo sapiens (Human), UniProt P35462); assay: Radioligand binding ([3H]-spiperone) to cloned human D3 receptor expressed in HEK-293 EBNA cells; details: membranes of transfected HEK-293 EBNA cells, 0.5 nM [3H]-spiperone, 1 h at RT
In short: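 Membranes from HEK-293 EBNA cells transiently transfected with human D3 receptor, incubated 1 h at RT with ~0.5 nM [3H]-spiperone and ten compound concentrations (10 μM-0.1 nM); nonspecific binding with 10 μM spiperone. Filtered, scintillation counted; IC50 from four-parameter fit, Ki via Cheng-Prusoff using saturation Kd.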

[2] = target: human 5-HT2A serotonin receptor (Homo sapiens (Human), UniProt P28223); assay: Radioligand binding ([3H]-ketanserin) to cloned human 5-HT2A receptor expressed in HEK-293 EBNA cells; details: membranes of transfected HEK-293 EBNA cells, 1.1 nM [3H]-ketanserin, 1 h at RT
In short: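 Membranes from transiently transfected HEK-293 EBNA cells incubated 1 h at RT with 1.1 nM [3H]-ketanserin (5-HT2A, 15 μg protein/well, Tris/MgCl2/EGTA pH 7.4) or 0.5 nM [3H]-spiperone (D3, 7.5 μg/well, Tris/NaCl/MgCl2/KCl/CaCl2 pH 7.4) plus test compound at 10 μM-0.1 nM. Nonspecific binding with 10 μM spiperone; filtration, Ki via Cheng-Prusoff.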

human D3 dopamine receptor, sequence (P35462 whole entry): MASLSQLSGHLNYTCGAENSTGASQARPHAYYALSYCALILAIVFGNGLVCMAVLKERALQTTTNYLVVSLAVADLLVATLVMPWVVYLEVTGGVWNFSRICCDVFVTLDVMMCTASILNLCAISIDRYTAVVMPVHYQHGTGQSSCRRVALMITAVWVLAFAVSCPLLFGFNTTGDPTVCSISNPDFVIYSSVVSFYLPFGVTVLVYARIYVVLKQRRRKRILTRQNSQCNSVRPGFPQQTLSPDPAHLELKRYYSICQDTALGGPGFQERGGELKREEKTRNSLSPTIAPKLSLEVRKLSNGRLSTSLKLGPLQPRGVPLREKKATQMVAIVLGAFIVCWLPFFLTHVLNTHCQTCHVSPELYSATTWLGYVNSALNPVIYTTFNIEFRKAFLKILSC

Row | Molecule | Ki [1] | Ki [2]
1 | O=C(CC1CC1)N[C@H]1CC[C@H](CCN2CCC(c3noc4cc(Cl)ccc34)CC2)CC1 [Example 54, N-trans-(4-{2-[4-(6-Chloro-benzo[d]isoxazol-3-yl)-piperidin-1-yl]-ethyl}-cyclohexyl)-2-cyclopropyl-acetamide] | 3.21 nM | 13.1 nM
2 | O=C(CO)N[C@H]1CC[C@H](CCN2CCC(c3noc4cc(Cl)ccc34)CC2)CC1 [Example 55, N-trans-(4-{2-[4-(6-Chloro-benzo[d]isoxazol-3-yl)-piperidin-1-yl]-ethyl}-cyclohexyl)-2-hydroxy-acetamide] | 16.8 nM | 15 nM
3 | CS(=O)(=O)CC(=O)N[C@H]1CC[C@H](CCN2CCC(c3noc4cc(Cl)ccc34)CC2)CC1 [Example 56, N-trans-(4-{2-[4-(6-Chloro-benzo[d]isoxazol-3-yl)-piperidin-1-yl]-ethyl}-cyclohexyl)-2-methanesulfonyl-acetamide] | 14.8 nM | 15.2 nM
4 | O=C(CC1OCCCO1)N[C@H]1CC[C@H](CCN2CCC(c3noc4cc(Cl)ccc34)CC2)CC1 [Example 57, N-trans-(4-{2-[4-(6-Chloro-benzo[d]isoxazol-3-yl)-piperidin-1-yl]-ethyl}-cyclohexyl)-2-[1,3]dioxan-2-yl-acetamide] | 6.13 nM | 17.6 nM
5 | CO[C@H]1CC[C@H](CC(=O)N[C@H]2CC[C@H](CCN3CCC(c4noc5ccc(Cl)cc45)CC3)CC2)CC1 [Example 58, N-trans-(4-{2-[4-(5-Chloro-benzo[d]isoxazol-3-yl)-piperidin-1-yl]-ethyl}-cyclohexyl)-2-(4-methoxy-cyclohexyl)-acetamide] | 8.38 nM | 24.7 nM
6 | CS(=O)(=O)N[C@H]1CC[C@H](CCN2CCC(c3noc4ccc(F)cc34)CC2)CC1 [Example 59, N-trans-(4-{2-[4-(5-Fluoro-benzo[d]isoxazol-3-yl)-piperidin-1-yl]-ethyl}-cyclohexyl)-methanesulfonamide] | 7.98 nM | 27.5 nM
7 | COCCC(=O)N[C@H]1CC[C@H](CCN2CCC(c3noc4cc(Cl)c(F)cc34)CC2)CC1 [Example 60, N-trans-(4-{2-[4-(6-Chloro-5-fluoro-benzo[d]isoxazol-3-yl)-piperidin-1-yl]-ethyl}-cyclohexyl)-3-methoxy-propionamide] | 13.5 nM | 44 nM
8 | O=C(CC1CCCO1)N[C@H]1CC[C@H](CCN2CCC(c3noc4cc(Cl)c(F)cc34)CC2)CC1 (stereo partly drawn) [Example 61, N-trans-(4-{2-[4-(6-Chloro-5-fluoro-benzo[d]isoxazol-3-yl)-piperidin-1-yl]-ethyl}-cyclohexyl)-2-(tetrahydro-furan-2-yl)-acetamide] | 17.7 nM | 31 nM
9 | COCC(=O)N[C@H]1CC[C@H](CCN2CCC(c3noc4cc(F)c(F)cc34)CC2)CC1 [Example 62, N-trans-(4-{2-[4-(5,6-Difluoro-benzo[d]isoxazol-3-yl)-piperidin-1-yl]-ethyl}-cyclohexyl)-2-methoxy-acetamide] | 32.7 nM | 10.5 nM
10 | CO[C@@H]1CC[C@@H](CC(=O)N[C@H]2CC[C@H](CCN3CCC(c4noc5cc(F)c(F)cc45)CC3)CC2)C1 [Example 63, N-trans-(4-{2-[4-(5,6-Difluoro-benzo[d]isoxazol-3-yl)-piperidin-1-yl]-ethyl}-cyclohexyl)-2-((1R,3R)-3-methoxy-cyclopentyl)-acetamide] | 20 nM | 13.2 nM
11 | CO[C@H]1CC[C@H](CC(=O)N[C@H]2CC[C@H](CCN3CCC(c4noc5cc(F)c(F)cc45)CC3)CC2)CC1 [Example 64, N-trans-(4-{2-[4-(5,6-Difluoro-benzo[d]isoxazol-3-yl)-piperidin-1-yl]-ethyl}-cyclohexyl)-2-(4-methoxy-cyclohexyl)-acetamide] | 17.3 nM | 7.67 nM
12 | COCCC(=O)N[C@H]1CC[C@H](CCN2CCC(c3noc4cc(F)c(F)cc34)CC2)CC1 [Example 65, N-trans-(4-{2-[4-(5,6-Difluoro-benzo[d]isoxazol-3-yl)-piperidin-1-yl]-ethyl}-cyclohexyl)-3-methoxy-propionamide] | 11.4 nM | 12.9 nM
13 | CC(=O)N[C@H]1CC[C@H](CCN2CCC(c3noc4cc(F)c(F)cc34)CC2)CC1 [Example 66, N-trans-(4-{2-[4-(5,6-Difluoro-benzo[d]isoxazol-3-yl)-piperidin-1-yl]-ethyl}-cyclohexyl)-acetamide] | 11.4 nM | 17.7 nM
14 | O=C(CO)N[C@H]1CC[C@H](CCN2CCC(c3noc4cc(F)c(F)cc34)CC2)CC1 [Example 67, N-trans-(4-{2-[4-(5,6-Difluoro-benzo[d]isoxazol-3-yl)-piperidin-1-yl]-ethyl}-cyclohexyl)-2-hydroxy-acetamide] | 19.9 nM | 11.8 nM
15 | O=C(CCO)N[C@H]1CC[C@H](CCN2CCC(c3noc4cc(F)c(F)cc34)CC2)CC1 [Example 68, N-trans-(4-{2-[4-(5,6-Difluoro-benzo[d]isoxazol-3-yl)-piperidin-1-yl]-ethyl}-cyclohexyl)-3-hydroxy-propionamide] | 11.7 nM | 24.8 nM
16 | O=C(C[C@H]1CC[C@H](O)CC1)N[C@H]1CC[C@H](CCN2CCC(c3noc4cc(F)c(F)cc34)CC2)CC1 [Example 69, N-trans-(4-{2-[4-(5,6-Difluoro-benzo[d]isoxazol-3-yl)-piperidin-1-yl]-ethyl}-cyclohexyl)-2-(4-hydroxy-cyclohexyl)-acetamide] | 20.9 nM | 7.85 nM
17 | O=C(C[C@@H]1CC[C@@H](O)C1)N[C@H]1CC[C@H](CCN2CCC(c3noc4cc(F)c(F)cc34)CC2)CC1 [Example 70, N-trans-(4-{2-[4-(5,6-Difluoro-benzo[d]isoxazol-3-yl)-piperidin-1-yl]-ethyl}-cyclohexyl)-2-((1R,3R)-3-hydroxy-cyclopentyl)-acetamide] | 19.8 nM | 11.4 nM
18 | O=C(N[C@H]1CC[C@H](CCN2CCC(c3noc4cc(F)c(F)cc34)CC2)CC1)C1CCOCC1 [Example 71, Tetrahydro-pyran-4-carboxylic acid trans-(4-{2-[4-(5,6-difluoro-benzo[d]isoxazol-3-yl)-piperidin-1-yl]-ethyl}-cyclohexyl)-amide] | 18.2 nM | 7.86 nM
19 | O=C(CC1OCCCO1)N[C@H]1CC[C@H](CCN2CCC(c3noc4cc(F)c(F)cc34)CC2)CC1 [Example 72, N-trans-(4-{2-[4-(5,6-Difluoro-benzo[d]isoxazol-3-yl)-piperidin-1-yl]-ethyl}-cyclohexyl)-2-[1,3]dioxan-2-yl-acetamide] | 13.5 nM | 9.39 nM
20 | CC(=O)N[C@H]1CC[C@H](CCN2CCC(c3noc4cc(C)ccc34)CC2)CC1 [Example 73, N-trans-(4-{2-[4-(6-Methyl-benzo[d]isoxazol-3-yl)-piperidin-1-yl]-ethyl}-cyclohexyl)-acetamide] | 9.28 nM | 16.8 nM
21 | N-trans-(4-{2-[4-(6-Chloro-benzo[d]isoxazol-3-yl)-piperidin-1-yl]-ethyl}-cyclohexyl)-2-trans (4-methoxy-cyclohexyl)-acetamide [Example 35] | 11.6 nM | 9.64 nM

From patent US8829029B2, “Dual modulators of 5HT2A and D3 receptors” (Hoffmann-La Roche Inc., priority 2008, dated 2014)
